molecular target: T1, human glucocorticoid receptor (GR) complex (Homo sapiens, UniProt P04150); assay: Glucocorticoid receptor competitive binding assay (fluorescence polarization); settings: competition with TAMRA-labeled dexamethasone
T1 construct: made in house; host or cells: insect expression system (baculovirus lysate)
T1 sequence (P04150 1-777): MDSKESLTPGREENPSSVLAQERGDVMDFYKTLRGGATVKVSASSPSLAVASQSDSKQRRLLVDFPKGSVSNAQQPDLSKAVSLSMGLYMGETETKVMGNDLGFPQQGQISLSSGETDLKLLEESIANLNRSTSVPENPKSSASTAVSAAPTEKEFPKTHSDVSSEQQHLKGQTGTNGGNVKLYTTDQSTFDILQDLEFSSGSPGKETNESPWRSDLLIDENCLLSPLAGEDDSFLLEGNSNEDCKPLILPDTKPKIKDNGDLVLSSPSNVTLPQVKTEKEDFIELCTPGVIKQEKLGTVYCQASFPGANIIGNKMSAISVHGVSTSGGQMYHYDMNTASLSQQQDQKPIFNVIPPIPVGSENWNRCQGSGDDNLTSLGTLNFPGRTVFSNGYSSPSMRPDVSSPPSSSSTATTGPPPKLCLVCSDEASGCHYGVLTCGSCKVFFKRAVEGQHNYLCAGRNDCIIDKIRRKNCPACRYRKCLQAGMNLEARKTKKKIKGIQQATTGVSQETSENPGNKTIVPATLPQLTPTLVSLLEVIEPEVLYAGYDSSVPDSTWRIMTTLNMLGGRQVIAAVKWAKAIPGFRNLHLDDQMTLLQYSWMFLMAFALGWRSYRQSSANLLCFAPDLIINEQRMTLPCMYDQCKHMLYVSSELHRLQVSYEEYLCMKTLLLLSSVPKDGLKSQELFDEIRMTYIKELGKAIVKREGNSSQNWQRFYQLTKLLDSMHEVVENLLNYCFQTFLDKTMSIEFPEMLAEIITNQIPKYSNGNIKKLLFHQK
Description: Compounds of the invention were evaluated for binding to the steroid receptor by a fluorescence polarization competitive binding assay.
A. Glucocorticoid Receptor Competitive Binding Assay
Step 1. Characterization of the Fluorescent Probe
The wavelengths for maximum excitation and emission of the fluorescent probe should first be measured. An example of such a probe is rhodamine (TAMRA)-labeled dexamethasone.
The affinity of the probe for the steroid receptor was then determined in a titration experiment. The fluorescence polarization value of the probe in assay buffer was measured on an SLM-8100 fluorometer using the excitation and emission maximum values described above. Aliquots of expression vector lysate were added and fluorescence polarization was measured after each addition until no further change in polarization value was observed. Non-linear least squares regression analysis was used to calculate the dissociation constant of the probe from the polarization values obtained for lysate binding to the probe.
Step 2. Screening for Inhibitors of Probe Binding
This assay uses fluorescence polarization (FP) to quantitate the ability of test compounds to compete with tetramethyl rhodamine (TAMRA)-labeled dexamethasone for binding to a human glucocorticoid receptor (GR) complex prepared from an insect expression system. The assay buffer was: 10 mM TES, 50 mM KCl, 20 mM Na2MoO4.2H20, 1.5 mM EDTA, 0.04% w/v CHAPS, 10% v/v glycerol, 1 mM dithiothreitol, pH 7.4. Test compounds were dissolved to 1 mM in neat DMSO and then further diluted to 10× assay concentration in assay buffer supplemented with 10% v/v DMSO. Test compounds were serially diluted at 10× assay concentrations in 10% DMSO-containing buffer in 96-well polypropylene plates. Binding reaction mixtures were prepared in 96-well black Dynex microtiter plates by sequential addition of the following assay components to each well: 15 μL of 10× test compound solution, 85 μL of GR-containing baculovirus lysate diluted 1:170 in assay buffer, and 50 μL of 15 nM TAMRA-labeled dexamethasone. Positive controls were reaction mixtures containing no test compound; negative controls (blanks) were reaction mixtures containing 0.7 μM to 2 μM dexamethasone. […] IC50 values were determined by iterative non-linear curve fitting of the FP signal data to a 4-parameter logistic equation.

Row | SMILES | activity in the GR binding assay
1 | CC(C)(CC(O)(Cn1ccc(=O)c2ccccc21)C(F)(F)F)c1cccc(CN2CCOCC2)c1 (stereo not drawn) | potent activity
2 | COc1ccc(F)cc1C(C)(C)CC(O)(CN1CCc2ccccc21)C(F)(F)F (stereo not drawn) [2-(2,3-Dihydroindol-1-ylmethyl)-1,1,1-trifluoro-4-(5-fluoro-2-methoxyphenyl)-4-methylpentan-2-ol] | potent activity
3 | COc1ccc(F)cc1C(C)(C)CC(O)(Cn1ccc(=O)c2ccccc21)C1CC1 (stereo not drawn) | potent activity
4 | COc1ccc(F)cc1C(C)(C)CC(C)(O)Cn1cc(C)c(=O)c(C)c1 (stereo not drawn) [1-[4-(5-Fluoro-2-methoxyphenyl)-2-hydroxy-2,4-dimethylpentyl]-3,5-dimethyl-1H-pyridin-4-one] | potent activity
5 | C/C(=N/OCc1ccccc1)c1cccc(C(C)(C)CC(O)(Cn2ccc(=O)c3ccccc32)C(F)(F)F)c1 (stereo not drawn) [1-(4-{3-[1-(Benzyloxyimino)ethyl]phenyl}-2-hydroxy-4-methyl-2-trifluoromethylpentyl)-1H-quinolin-4-one] | potent activity
6 | Cc1cn(CC(O)(CC(C)(C)c2cc(F)ccc2O)C(F)(F)F)c2ccccc2c1=O (stereo not drawn) | potent activity
7 | COc1ccc(F)cc1C(C)(C)CC(O)(CN1CCN(C(C)=O)c2ccccc21)C(F)(F)F (stereo not drawn) [1-{4-[4-(5-Fluoro-2-methoxyphenyl)-2-hydroxy-4-methyl-2-trifluoromethylpentyl]-3,4-dihydro-2H-quinoxalin-1-yl}ethanone] | potent activity
8 | C[S+]([O-])c1cc2c(c(C(C)(C)CC(O)(Cn3ccc(=O)c4ccccc43)C(F)(F)F)c1)OCC2 (stereo not drawn) [1-[2-Hydroxy-4-(5-methanesulfinyl-2,3-dihydrobenzofuran-7-yl)-4-methyl-2-trifluoromethylpentyl]-1H-quinolin-4-one] | potent activity
9 | COc1ccc(F)cc1C(C)(C)CC(O)(CN1CCN(c2ncc(C(F)(F)F)cc2Cl)CC1)C(F)(F)F (stereo not drawn) [2-[4-(3-Chloro-5-trifluoromethylpyridin-2-yl)piperazin-1-ylmethyl]-1,1,1-trifluoro-4-(5-fluoro-2-methoxyphenyl)-4-methylpentan-2-ol] | potent activity
10 | COc1ccc(F)cc1C(C)(C)CC(O)(Cn1[nH]c(=O)c2ccccc21)C(F)(F)F (stereo not drawn) [1-[4-(5-Fluoro-2-methoxyphenyl)-2-hydroxy-4-methyl-2-trifluoromethylpentyl]-1,2-dihydroindazol-3-one] | potent activity
11 | Cc1noc(C)c1-c1ccc(O)c(C(C)(C)CC(O)(Cn2ccc(=O)c3ccccc32)C(F)(F)F)c1 (stereo not drawn) [1-{4-[5-(3,5-Dimethylisoxazol-4-yl)-2-hydroxyphenyl]-2-hydroxy-4-methyl-2-trifluoromethylpentyl}-1H-quinolin-4-one] | potent activity
12 | Cc1cc(C)c(O)c(C(C)(C)CC(O)(Cn2ccc(=O)c3ccccc32)C(F)(F)F)c1 (stereo not drawn) [1-[2-Hydroxy-4-(2-hydroxy-3,5-dimethylphenyl)-4-methyl-2-trifluoromethylpentyl]-1H-quinolin-4-one] | potent activity
13 | CC(C)(CC(O)(Cn1ccc(=O)c2ccc(O)cc21)C(F)(F)F)c1cc(F)ccc1O (stereo not drawn) | potent activity
14 | Cc1ccc(F)cc1C(C)(C)CC(O)(Cn1cc(C)c(=O)c(C)c1)C(F)(F)F (stereo not drawn) [1-[4-(5-Fluoro-2-methylphenyl)-2-hydroxy-4-methyl-2-trifluoromethylpentyl]-3,5-dimethyl-1H-pyridin-4-one] | potent activity
15 | CC(C)(CC(O)(Cn1ccc(=O)c2ccccc21)C(F)(F)F)c1cc(F)cc2c1OCC2 (stereo not drawn) | potent activity

Further lines, results first:

Row | activity in the GR binding assay | SMILES
16 | potent activity | COc1ccc(C=O)cc1C(C)(C)CC(O)(Cn1ccc(=O)c2ccccc21)C(F)(F)F (stereo not drawn) [4-Methoxy-3-[4,4,4-trifluoro-3-hydroxy-1,1-dimethyl-3-(4-oxo-4H-quinolin-1-ylmethyl)butyl]benzaldehyde]
17 | potent activity | CC(C)(CC(O)(Cn1ccc(=O)c2ccccc21)C(F)(F)F)c1cccc(F)c1 (stereo not drawn) [1-[4-(3-Fluorophenyl)-2-hydroxy-4-methyl-2-trifluoromethylpentyl]-1H-quinolin-4-one]
18 | potent activity | COc1cccc(C(C)(C)CC(O)(Cn2ccc(=O)c3ccccc32)C(F)(F)F)c1 (stereo not drawn) [1-[2-Hydroxy-4-(3-methoxyphenyl)-4-methyl-2-trifluoromethylpentyl]-1H-quinolin-4-one]
19 | potent activity | CC(=O)COc1cccc(C(C)(C)CC(O)(Cn2ccc(=O)c3ccccc32)C(F)(F)F)c1 (stereo not drawn) [1-{2-Hydroxy-4-methyl-4-[3-(2-oxopropoxy)phenyl]-2-trifluoromethylpentyl}-1H-quinolin-4-one]
20 | potent activity | CC(C)(CC(O)(Cn1ccc(=O)c2ccccc21)C(F)(F)F)c1cccc(CO)c1 (stereo not drawn)
21 | potent activity | COc1ccc(-c2cccs2)cc1C(C)(C)CC(O)(Cn1ccc(=O)c2ccccc21)C(F)(F)F (stereo not drawn) [1-[2-Hydroxy-4-(2-methoxy-5-thiophen-2-ylphenyl)-4-methyl-2-trifluoromethylpentyl]-1H-quinolin-4-one]
22 | potent activity | CC(C)(CC(O)(Cn1ccc(=O)c2ccccc21)C(F)(F)F)c1ccc(O)c(F)c1 (stereo not drawn) [1-[4-(3-Fluoro-4-hydroxyphenyl)-2-hydroxy-4-methyl-2-trifluoromethylpentyl]-1H-quinolin-4-one]
23 | potent activity | Cc1ccc(C(C)(C)CC(O)(Cn2ccc(=O)c3ccccc32)C(F)(F)F)cc1C (stereo not drawn)
24 | potent activity | COc1ccc(C)cc1C(C)(C)CC(O)(Cn1ccc(=O)c2ccccc21)C(F)(F)F (stereo not drawn) [1-[2-Hydroxy-4-(2-methoxy-5-methylphenyl)-4-methyl-2-trifluoromethylpentyl]-1H-quinolin-4-one]
25 | potent activity | COc1ccc(F)cc1C(C)(C)CC(O)(Cn1ccc(=O)c2cc(C)ccc21)C(F)(F)F (stereo not drawn)
26 | potent activity | Cc1ccc(F)cc1C(C)(C)CC(O)(Cn1ccc(=O)c2ccccc21)C(F)(F)F (stereo not drawn)
27 | potent activity | CC(C)(CC(O)(Cn1ccc(=O)c2ccccc21)C(F)(F)F)c1cc(Br)ccc1O (stereo not drawn) [1-[4-(5-Bromo-2-hydroxyphenyl)-2-hydroxy-4-methyl-2-trifluoromethylpentyl]-1H-quinolin-4-one]
28 | potent activity | COc1ccc(C2OCCCO2)cc1C(C)(C)CC(O)(Cn1ccc(=O)c2ccccc21)C(F)(F)F (stereo not drawn) [1-[4-(5-[1,3]Dioxan-2-yl-2-methoxyphenyl)-2-hydroxy-4-methyl-2-trifluoromethylpentyl]-1H-quinolin-4-one]
29 | potent activity | COc1ccc(C(C)=O)cc1C(C)(C)CC(O)(Cn1ccc(=O)c2ccccc21)C(F)(F)F (stereo not drawn) [1-[4-(5-Acetyl-2-methoxyphenyl)-2-hydroxy-4-methyl-2-trifluoromethylpentyl]-1H-quinolin-4-one]
30 | potent activity | COc1ccc(C(C)(C)CC(O)(Cn2ccc(=O)c3ccccc32)C(F)(F)F)cc1F (stereo not drawn) [1-[4-(3-Fluoro-4-methoxyphenyl)-2-hydroxy-4-methyl-2-trifluoromethylpentyl]-1H-quinolin-4-one]
31 | potent activity | COc1ccc(F)cc1C(C)(C)CC(O)(Cn1ccc(=O)c2ccccc21)C(F)F (stereo not drawn)
32 | potent activity | COc1ccc(F)cc1C(C)(C)CC(O)(Cn1cc(C)c(=O)c2ccccc21)C(F)(F)F (stereo not drawn)
33 | potent activity | CC(C)(CC(O)(Cn1ccc(=O)c2ccccc21)C(F)(F)F)c1cccc(-c2cccnc2)c1 (stereo not drawn)

From US7579469B2, “Glucocorticoid mimetics, methods of making them, pharmaceutical compositions, and uses thereof” (Boehringer Ingelheim Pharmaceuticals, Inc., priority 2003, dated 2009)
